Article PMC10065799, “High-throughput profiling of sequence recognition by tyrosine kinases and SH2 domains using bacterial peptide display” (eLife, 2023)

Columns and labels:
Experiment in all cases: pTyr-Var library bacterial peptide display kinase screen (enrichment scores)
c-Src kinase domain = c-Src kinase domain (Homo sapiens, UniProt P12931); format: biochemical; details: sheet "Src";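 note: log2 fold change in enrichment of variant over reference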
EPHB2 kinase domain = format: biochemical, human; details: sheet EPHB2
EPHB1 kinase domain = format: biochemical, human; details: for Screen: sheet EPHB1, effect of the variant peptide relative to its reference peptide in the pTyr-Var library screen (enrichment scores); for Screen (variant relative to reference peptide, measured in the pTyr-Var library screen): sheet "EPHB1", variant seq vs reference seq, bacterial peptide display enrichment
Fer kinase domain = format: biochemical, mouse; details: sheet "Fer"
c-Abl kinase domain = target: T1, c-Abl kinase domain (Mus musculus, UniProt P00520); format: biochemical;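 note: log2 fold change in enrichment of variant over reference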
T1 sequence (P00520 242-493 limits assumed): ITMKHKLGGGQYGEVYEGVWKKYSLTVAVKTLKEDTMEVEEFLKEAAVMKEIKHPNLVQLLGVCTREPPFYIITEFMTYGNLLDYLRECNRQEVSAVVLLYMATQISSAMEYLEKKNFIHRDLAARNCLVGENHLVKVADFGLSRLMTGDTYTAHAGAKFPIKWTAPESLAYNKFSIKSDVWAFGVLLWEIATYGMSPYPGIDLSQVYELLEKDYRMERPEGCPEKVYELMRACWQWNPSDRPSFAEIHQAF

[1] = variant peptide versus its reference peptide in the pTyr-Var library screen
[2] = effect of variant peptide relative to its reference peptide in the pTyr-Var library screen (enrichment scores)
[3] = value of the variant peptide against its reference peptide in the pTyr-Var library screen with Fer
[4] = effect of the variant relative to its reference peptide in the pTyr-Var library screen
[5] = effect of the variant peptide relative to its reference peptide in the pTyr-Var library screen
[6] = fig5-data2, sheet "Abl", Screen for the variant/reference peptide pair, pTyr-Var library
[7] = sheet "Abl", effect of variant peptide relative to its reference peptide in pTyr-Var library screen (enrichment)
[8] = variant peptide relative to its reference peptide, pTyr-Var library screen enrichment

Sequence | Screen (EPHB2 kinase domain; [2]) | Screen (EPHB1 kinase domain) | Screen (Fer kinase domain; [3]) | Screen (c-Src kinase domain; [5]) | further results
ANARMYGVLPW [PLP1_Y207_D203N] | -1.895 | – | – | – | Screen (c-Src kinase domain; [1]): -0.7799
AVISVYDLVAF [PSEN1_Y256_V261F] | 0.9519 | 0.6578 | 0.2851 | – | Screen (c-Src kinase domain; [1]): 0.3764
DCVRMYELVHR [GLE1_Y135_G130D] | -0.0869 | -0.05786 | 0.7012 | – | –
DLNATYCTIQG [U2SURP_Y634_R635C] | – | – | – | – | Screen (c-Src kinase domain; [1]): 2.996; Screen (variant relative to reference peptide, measured in the pTyr-Var library screen) (EPHB1 kinase domain): 3.639; Screen (EPHB2 kinase domain; [4]): 3.025
EAEALYQTTFQ [KRT73_Y325_K328T] | 1.238 | – | 3.654 | 1.585 | –
EDEGLYTVRVP [MYOM3_Y343_M344T] | -1.314 | -1.202 | -0.4796 | – | Screen (c-Src kinase domain; [1]): -0.00676
EEVPLYESATT [DCC_Y809_G805E] | -0.8416 | -0.9244 | -0.3858 | – | –
FFSSEYHCVGG [CTSC_Y345_Y347C_YF] | -0.8292 | -0.4883 | – | -0.4888 | Screen (c-Abl kinase domain; [6]): 0.5786
GEHSIYSTVNN [CD55_Y266_C267S] | 1.232 | 0.557 | 1.521 | 0.6713 | –
HDRGNYVQLNM [RECQL4_Y353_R355Q] | 1.444 | 1.895 | – | – | –
HICTAYKLVLA [DHCR24_Y190_E191K] | 0.4857 | – | -2.51 | -1.13 | –
HLEKKYVHRDS [CSF1R_Y708_R710H] | -2.097 | -1.586 | -0.7741 | -3.671 | –
HNLDFYKQTTN [FGFR3_Y648_K650Q_YF] | -1.53 | -1.421 | -2.104 | -2.522 | –
HQKKPYCHTHN [NRAP_Y53_A56T] | – | 0.5433 | 0.08502 | – | –
IGEGTYGVLFK [CDK2_Y15_V18L_YF] | -0.7589 | – | – | 0.1027 | –
INPIIYAFVGG [CCR5_Y297_E302G] | 0.0201 | 0.07603 | -0.02742 | 0.06385 | –
KSIQLYDTPFE [SHB_Y297_G293S_YF] | 0.4609 | – | – | – | Screen (variant relative to reference peptide, measured in the pTyr-Var library screen) (EPHB1 kinase domain): 0.5631; Screen (c-Abl kinase domain; [7]): -1.035; Screen (Fer kinase domain; [8]): 0.2984
LICRRYLVMQR [IL3RA_Y328_V323L] | 1.326 | – | – | – | Screen (c-Abl kinase domain; [6]): 0.743
LLILEYAKFGS [RET_Y806_V804L_YF] | -0.9388 | -0.7851 | – | – | –

Sequence | Screen (EPHB2 kinase domain; [2]) | Screen (EPHB1 kinase domain) | Screen (Fer kinase domain; [3]) | Screen (c-Src kinase domain; [5]) | further results
LLRFLYFFVCS [SLC34A2_Y109_G106R] | -1.518 | – | – | – | Screen (c-Src kinase domain; [1]): -1.793
LQIPMYEVQWK [KIT_Y553_K550I] | 4.801 | 3.846 | 1.505 | 1.435 | –
LRSELYSLIAR [PHIP_Y16_F17S] | – | 1.727 | 2.641 | – | Screen (c-Src kinase domain; [1]): 0.6047
LRSKQYLRNPP [SHC1_Y315_F312S] | -1.743 | – | – | – | Screen (c-Abl kinase domain; [7]): -0.3171
LSIQCYLRASD [HMGCS2_Y262_L266S] | 0.8903 | 1.205 | 1.097 | – | –
MKVPLYETPAG [PGM5_Y358_V357L] | 0.6636 | 0.8032 | 0.5188 | – | Screen (c-Src kinase domain; [1]): -1.534
QADIIYVNTQL [MERTK_Y872_V870I] | – | -0.9888 | -0.9597 | – | –
QADVVYVNTQL [MERTK_Y872_I871V] | – | -1.929 | -1.343 | – | –
QELRRYLESGV [MICA_Y194_K196E] | 0.3004 | – | – | – | –
QNAGDYFDLFG [PTPN11_Y62_T59A_YF] | -0.3726 | -0.1063 | – | – | Screen (c-Src kinase domain; [1]): -0.3977
QNWELYSEGLG [CNKSR1_Y665_R662W] | 3.538 | 3.643 | – | 2.202 | –
QRALLYEDTLF [UNC13D_Y56_A59T_YF] | – | – | – | – | Screen (c-Src kinase domain; [1]): 0.3849; Screen (variant relative to reference peptide, measured in the pTyr-Var library screen) (EPHB1 kinase domain): 0.5027; Screen (EPHB2 kinase domain; [4]): 0.5663; Screen (Fer kinase domain; [8]): 0.1557
RGESFYQDTMN [RARS_Y338_R341T] | 1.971 | 2.46 | – | – | Screen (Fer kinase domain; [8]): 1.596
RLGVTYEQALA [MAP2_Y996_G991R] | 1.544 | – | – | – | –
RRIHSYRSHLW [VHL_Y112_G114S] | – | – | – | – | Screen (c-Src kinase domain; [1]): -3.054; Screen (variant relative to reference peptide, measured in the pTyr-Var library screen) (EPHB1 kinase domain): -1.453; Screen (c-Abl kinase domain; [7]): -2.663; Screen (EPHB2 kinase domain; [4]): -0.1154
SNNFIYTTLGV [FAM83B_Y639_K640T_YF] | – | 2.305 | 2.656 | 3.577 | –
TNEFEYDELIV [TGM1_Y136_D132N_YF] | – | – | – | – | Screen (EPHB2 kinase domain; [4]): -2.123
WAFNLYDINKF [KCNIP3_Y174_D179Y_YF] | 0.891 | 0.7978 | 1.417 | -0.1467 | –
